In patent publication US20150065526A1, “OVERCOMING ACQUIRED RESISTANCE TO CHEMOTHERAPY TREATMENTS THROUGH SUPPRESSION OF STAT3” (EMORY UNIVERSITY, priority 2013, published 2015):

Assays:
[1] = system: HCC827/ER lung cancer xenografts; details: niclosamide 20 mg/kg/d
Experimental: (§1) Each group includes 8 mice. Tumor volume was measured once every 2 days. After 32 days, the mice were sacrificed and the tumors were removed and analyzed. Representative tumor pictures were taken. B, active caspase-3 was analyzed in tumor tissues at the end of experiments by IHC staining and quantified as described in Materials and Methods. C, expression levels of pEGFR, pSTAT3, Bcl2, and Bcl-XL from tumor tissues in various treatment groups were analyzed by Western blot analysis.
(§2) The control group was treated with 0.5% DMSO vehicle.

[2] = system: Tu212 head and neck cancer xenografts; experiment: Tu212 head and neck cancer xenografts in mice; type: in vivo; details: for Xenograft tumor growth, Tu212: erlotinib 40 mg/kg/d, niclosamide 20 mg/kg/d, two weeks
Experimental: Each group included 8 mice. Tumor volume was measured once every 2 days. After 14 days, the mice were sacrificed and the tumors were removed and analyzed. Representative tumor pictures were taken. B, Active caspase 3 and Ki 67 were analyzed in tumor tissues at the end of experiments by IHC staining and quantified. C, Expression levels of pEGFR, pSTAT3, Bcl2 and Bcl-XL in tumor tissues from various treatment groups were analyzed by Western blot.
First, head and neck cancer xenografts were generated using Tu212 cells.

[3] = system: PTPMeg2, pSTAT3, Bcl2, Bcl-XL, JAK2, c-Src in HCC827 cells; experiment: Western blot of HCC827 cells treated with erlotinib; type: cell-based, human
[4] = system: HCC827 lung cancer xenografts; details: niclosamide 20 mg/kg/d
Experimental: as §1, §2

[5] = system: STAT3 phosphorylation, Bcl2/Bcl-XL in Tu212 and Tu686 cells; experiment: Western blot of Tu212 and Tu686 head and neck cancer cells; type: cell-based; details: erlotinib plus increasing concentrations of niclosamide, 48 h
STAT3 = STAT3 (Homo sapiens, UniProt P40763); details: cited from earlier work
Chain of STAT3 (P40763 whole entry): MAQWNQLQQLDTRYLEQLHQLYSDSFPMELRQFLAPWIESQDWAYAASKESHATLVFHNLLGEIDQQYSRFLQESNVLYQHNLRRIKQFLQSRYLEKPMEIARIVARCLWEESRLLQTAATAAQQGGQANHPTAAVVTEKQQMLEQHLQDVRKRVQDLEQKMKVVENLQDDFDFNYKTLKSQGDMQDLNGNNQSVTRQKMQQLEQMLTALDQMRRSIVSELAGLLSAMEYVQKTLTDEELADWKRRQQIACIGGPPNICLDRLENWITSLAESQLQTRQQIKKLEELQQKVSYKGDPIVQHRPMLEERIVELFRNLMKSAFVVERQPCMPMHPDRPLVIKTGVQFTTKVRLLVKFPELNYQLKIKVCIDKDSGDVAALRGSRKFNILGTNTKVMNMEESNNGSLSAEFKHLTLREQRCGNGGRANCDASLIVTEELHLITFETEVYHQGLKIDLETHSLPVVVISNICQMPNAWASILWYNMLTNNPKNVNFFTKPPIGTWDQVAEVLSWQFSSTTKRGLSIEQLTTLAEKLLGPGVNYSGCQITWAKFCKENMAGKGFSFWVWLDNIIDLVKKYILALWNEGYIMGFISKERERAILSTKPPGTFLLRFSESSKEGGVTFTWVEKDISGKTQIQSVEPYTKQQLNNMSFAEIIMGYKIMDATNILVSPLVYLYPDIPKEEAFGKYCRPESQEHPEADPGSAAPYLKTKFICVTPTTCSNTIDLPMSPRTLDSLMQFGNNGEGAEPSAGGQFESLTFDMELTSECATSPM

SMILES: C#Cc1cccc(Nc2ncnc3cc(OCCOC)c(OCCOC)cc23)c1 [erlotinib, N-(3-ethynylphenyl)-6,7-bis(2-methoxyethoxy)quinazolin-4-amine]
- Tumor volume, HCC827/ER xenografts ([1]; erlotinib 40 mg/kg/d, 32 days): tumor volumes comparable with those in the vehicle-treated control group
- Xenograft tumor growth, Tu212 [2]: modest efficacy
- JAK2 and c-Src phosphorylation [3]: inhibited JAK2 and c-Src phosphorylation
- PTPMeg2 expression [3]: downregulates PTPMeg2
- STAT3/Bcl2/Bcl-XL pathway status [3]: activation of the STAT3/Bcl2/Bcl-XL pathway

SMILES: O=C(Nc1ccc([N+](=O)[O-])cc1Cl)c1cc(Cl)ccc1O [niclosamide]
- STAT3 phosphorylation, Bcl2 and Bcl-XL in tumor lysates (Western blot), HCC827 [4]: blocks STAT3 phosphorylation in association with reduced Bcl2 and Bcl-XL
- STAT3 phosphorylation, Bcl2 and Bcl-XL in tumor lysates (Western blot), HCC827/ER [1]: blocks STAT3 phosphorylation in association with reduced Bcl2 and Bcl-XL
- Erlotinib-induced STAT3 phosphorylation and Bcl2/Bcl-XL (Western blot) [5]: inhibited erlotinib-induced STAT3 phosphorylation and downregulated Bcl2/Bcl-XL in a dose-dependent manner
- Xenograft tumor growth, Tu212 [2]: modest efficacy
- Erlotinib-stimulated STAT3 phosphorylation, Bcl2 and Bcl-XL in tumor tissue lysates, Tu212 ([2]; three mice in each treatment group): blocks erlotinib-stimulated STAT3 phosphorylation leading to decreased Bcl2 and Bcl-XL levels
- Activation of upstream proteins JAK2 and Src (STAT3): no obvious inhibitory effect
- STAT3 Tyr705 phosphorylation and transcriptional activity (STAT3): can inhibit Tyr705 site phosphorylation as well as transcriptional activity of STAT3
